Test results taken from article PMC5361079 (Scientific Reports, 2017).
Like-named read-outs stand apart in the source and are kept apart here.

Experiments:
[1] = system: anesthetized, male Dunkin-Hartley guinea pigs; conditions: cumulative IV infusion dose 2.5 mg/kg amiodarone alone; cited from earlier work
[2] = Cardiac tissue concentrations in anesthetized guinea pigs; format: in vivo, guinea pig; conditions: end of IV infusions, prodrug alone or + amiodarone
[3] = anesthetized guinea pigs, cited from earlier work
hiPSC-CMs = assay: Intracellular prodrug, cleavage intermediate metabolite and NTP metabolite concentrations in hiPSC-CMs; format: in vitro ADME, human
Description: Approximately 18 h before dosing, iCell hiPSC-CMs were switched to iCell cardiomyocyte maintenance media free of Penicillin/Streptomycin. […] […] After the corresponding treatment, cells were washed 2x with 200 μL of ice-cold magnesium- and calcium-free PBS buffer. Cells were then lysed in 100 μL of ice-cold lysis solution (70/30 methanol/water containing 20 mM EDTA and 20 mM EGTA, pH 8) by pipetting up and down 5 times. Plates were sealed and transferred on dry ice for determination of prodrug, cleavage intermediate metabolite, and NTP metabolite concentrations. Intracellular prodrug concentrations were measured using a reversed phase HPLC- high resolution mass spectrometry method. A dimethylhexylamine based ion-pairing HPLC-MS/MS method was used to measure intracellular cleavage intermediate metabolite and NTP metabolite concentrations. Intracellular concentrations (pmol/million cells) of prodrug, cleavage intermediate metabolite, and NTP metabolite were quantitated against calibration standards of the same analytes prepared from control iCell hiPSC-CM lysates.
For prodrug analyses, full scan high resolution mass spectrometry data was collected using an Exactive™ Orbitrap mass spectrometer with an electrospray source operated in the positive ion mode. Prodrug chromatograms were extracted from full scan high resolution mass spectrometry data for the masses indicated in Supplementary Table 5. Absence of endogenous interference(s) was verified by extracting the same ion from full scan high resolution mass spectrometry chromatograms of unspiked control cell lysates. For the cleavage intermediate metabolite and NTP metabolite an electrospray MS/MS method run on a SCIEX API 4000 mass spectrometer with turboV ionspray source was used in negative ion mode monitoring the transitions indicated in Supplementary Table 5. Absence of endogenous interference(s) was verified by monitoring of the same MRM transitions for unspiked control cell lysates. Measured intracellular prodrug, cleavage intermediate metabolite, and NTP metabolite concentrations (in pmol/million cells units) were tabulated (Table 2).

hiPSC-CM syncytia = assay: Spontaneous FP rate and IMP amplitude/beating rate in hiPSC-CM syncytia (RTCA CardioECR / RTCA Cardio); format: cell-based, human
Description: hiPSC-CMs (iCells®) from Cellular Dynamics International (CDI, Madison, WI, USA) were seeded onto 48-well CardioECR or 96-well Cardio E-Plates® (ACEA Biosciences Inc., San Diego, CA, USA) coated with 10 μg/mL fibronectin (Sigma Aldrich, Catalog# F1141) at 30,000 cells/well, following manufacturer’s recommendations. Cells were maintained in culture (37 °C, 5% CO2) for a period of 14 days with iCell Maintenance® media (CDI, Madison, WI, USA) exchanged every 2–3 days. Compound addition was only performed on or after Day 14 following cell seeding.
Compound stock solutions were prepared in 100% DMSO or H2O. On the day of compound addition, the media was exchanged with fresh iCell Maintenance® media and allowed to equilibrate for at least 3 h in the incubator. The plates were read on an xCELLigence® RTCA CardioECR or RTCA Cardio (ACEA Biosciences Inc., San Diego, CA, USA). Control pre-reads to establish a baseline were recorded for at least 45 minutes (4 reads at 15-min intervals) prior to compound addition. The compound stock solutions were diluted into iCell Maintenance® media and quickly added to the plate. The plate was continuously monitored for at least 18 h following compound addition. IMP data were sampled at 12 ms (83 Hz), while FP rate data were collected at 0.1 ms (10 KHz). Attachment, growth and viability of syncytia were monitored by means of the baseline IMP signal, as previously described. IMP and FP signals were only interpreted if the baseline IMP was maintained throughout the measurement period (usually ≤18 hrs) at ≥70% of the value before test compound application (pre-read value).

[4] = 30 Min, SOF-3 mM, SOF + A (0.3 µM amiodarone) + Ebel, LOQ=17
[5] = 10 μM prodrug in the presence of 0.3 μM amiodarone
[6] = prodrug co-administered with 0.3 μM amiodarone, steady state (4 h), spontaneously beating hiPSC-CM syncytia

CCCCc1oc2ccccc2c1C(=O)c1cc(I)c(OCCN(CC)CC)c(I)c1 [amiodarone]
HR, % change from baseline [1]: −7%

CC(C)OC(=O)[C@H](C)NP(=O)(OC[C@H]1O[C@@H](n2ccc(=O)[nH]c2=O)[C@](C)(F)[C@@H]1O)Oc1ccccc1 (stereo partly drawn) [sofosbuvir, isopropyl (2S)-2-[[[(2R,3R,4R,5R)-5-(2,4-dioxopyrimidin-1-yl)-4-fluoro-3-hydroxy-4-methyl-tetrahydrofuran-2-yl]methoxy-phenoxy-phosphoryl]amino]propanoate, reference compound]
Cleavage intermediate metabolite and NTP metabolite in cardiac tissue [2]: present | Cardiac sofosbuvir concentration ([3]; cumulative IV sofosbuvir + amiodarone): ~ 6 nmol/g tissue | Cardiac sofosbuvir concentration ([3]; cumulative IV sofosbuvir alone): ~ 8 nmol/g tissue | Intracellular Concentration, Sofosbuvir (Prodrug) (hiPSC-CMs; 4 Hours, SOF-10 μM, SOF): 66.9 ± 6.8 pmol/million cells | Intracellular Concentration, Sofosbuvir (Prodrug) (hiPSC-CMs; 4 Hours, SOF-3 mM, SOF): 19.6 ± 5.8 pmol/million cells | Intracellular Concentration, Sofosbuvir (Prodrug) (hiPSC-CMs; 4 Hours, SOF-3 mM, SOF + A (0.3 µM amiodarone) + Ebel): 46.9 ± 8.9 pmol/million cells | Intracellular Concentration, NTP Metabolite (hiPSC-CMs; 4 Hours, SOF-3 mM, SOF + A (0.3 µM amiodarone) + Ebel, LOQ=17): B LOQ | Intracellular Concentration, NTP Metabolite (hiPSC-CMs; 4 Hours, SOF-3 mM, SOF, LOQ=17): B LOQ | Intracellular Concentration, NTP Metabolite (hiPSC-CMs; 4 Hours, SOF-10 mM, SOF + A (0.3 µM amiodarone) + Ebel, LOQ=17): B LOQ | Intracellular Concentration, Sofosbuvir (Prodrug) (hiPSC-CMs; 30 Min, SOF-10 μM, SOF + A (0.3 µM amiodarone) + Ebel): 53.4 ± 9.5 pmol/million cells | Intracellular Concentration, Cleavage Intermediate Metabolite (hiPSC-CMs; 30 Min, SOF-10 μM, SOF + A (0.3 µM amiodarone) + Ebel, LOQ=17): B LOQ | Intracellular Concentration, Sofosbuvir (Prodrug) (hiPSC-CMs; 30 Min, SOF-3 mM, SOF): 19.5 ± 0.9 pmol/million cells | Intracellular Concentration, Cleavage Intermediate Metabolite (hiPSC-CMs; [4]): B LOQ | Intracellular Concentration, NTP Metabolite (hiPSC-CMs; [4]): B LOQ | Intracellular Concentration, NTP Metabolite (hiPSC-CMs; 30 Min, SOF-3 mM, SOF, LOQ=17): B LOQ | Intracellular Concentration, NTP Metabolite (hiPSC-CMs; 30 Min, SOF-10 mM, SOF + A (0.3 µM amiodarone) + Ebel, LOQ=17): B LOQ | Intracellular Concentration, NTP Metabolite (hiPSC-CMs; 30 Min, SOF-10 mM, SOF, LOQ=17): B LOQ | Intracellular Concentration, NTP Metabolite (hiPSC-CMs; SOF-10 mM, 4 Hours, 2a (SAR164653) 50 mM, LOQ=17): B LOQ | Intracellular Concentration, NTP Metabolite (hiPSC-CMs; SOF-10 mM, 4 Hours, 2a (SAR164653) 100 mM, LOQ=17): B LOQ | Intracellular Concentration, NTP Metabolite (hiPSC-CMs; SOF-10 mM, 30 Min, 2a (SAR164653) 0 mM, LOQ=17): B LOQ | Intracellular Concentration, NTP Metabolite (hiPSC-CMs; SOF-10 mM, 30 Min, 2a (SAR164653) 1 mM, LOQ=17): B LOQ | Intracellular Concentration, NTP Metabolite (hiPSC-CMs; SOF-10 mM, 30 Min, 2a (SAR164653) 10 mM, LOQ=17): B LOQ | Intracellular Concentration, NTP Metabolite (hiPSC-CMs; SOF-10 mM, 30 Min, 2a (SAR164653) 50 mM, LOQ=17): B LOQ | Intracellular Concentration, NTP Metabolite (hiPSC-CMs; SOF-10 mM, 30 Min, 2a (SAR164653) 100 mM, LOQ=17): B LOQ | Intracellular Concentration, Prodrug (hiPSC-CMs; hiPSC-CMs, 10 μM prodrug + 0.3 μM amiodarone, 4 Hours): 58.4 ± 6.0 pmol/million cells | Intracellular Concentration, Prodrug (hiPSC-CMs; hiPSC-CMs, 10 μM prodrug + 0.3 μM amiodarone, 30 Min): 45.6 ± 2.0 pmol/million cells | Intracellular Concentration, NTP Metabolite (hiPSC-CMs; hiPSC-CMs, 10 μM prodrug + 0.3 μM amiodarone, 30 Min, BLOQ = below 17 pmol/million cells): BLOQ | Intracellular Concentration, Prodrug (hiPSC-CMs; hiPSC-CMs, 10 μM prodrug alone, 4 Hours): 50.1 ± 2.1 pmol/million cells | Intracellular Concentration, Prodrug (hiPSC-CMs; hiPSC-CMs, 10 μM prodrug alone, 30 Min): 46.7 ± 3.7 pmol/million cells | Intracellular Concentration, NTP Metabolite (hiPSC-CMs; hiPSC-CMs, 10 μM prodrug alone, 30 Min, BLOQ = below 17 pmol/million cells): BLOQ* | Change in IMP amplitude (RTCA Cardio) (hiPSC-CM syncytia; [5]): −97% ± 2% | Change in beating rate (IMP-measured, RTCA Cardio) (hiPSC-CM syncytia; [5]): +146% ± 11% | IMP amplitude (hiPSC-CM syncytia; 11 μM sofosbuvir co-applied with 0.3 μM amiodarone): below the limit of detection | Effect on FP rate (hiPSC-CM syncytia; [6]): Concentration-dependent, steady-state effects | Effect on IMP amplitude (hiPSC-CM syncytia; [6]): Concentration-dependent, steady-state effects
